Test results: ChEMBL document CHEMBL5346892, “Design and synthesis of benzochromene derivatives as AcrB inhibitors for the reversal of bacterial multidrug resistance” (Eur J Med Chem, 2023)

Legend:
Escherichia coli [1] = assay: Synergistic antibacterial activity against wild type Escherichia coli BW25113 assessed as levofloxacin MIC at 1 microg/ml incubated for 18 hrs in presence of colistin by broth dilution assay; assay type: functional; conditions: dose 1 µg/ml
Escherichia coli [2] = assay: Synergistic antibacterial activity against wild type Escherichia coli BW25113 assessed as levofloxacin MIC at 64 microg/ml incubated for 18 hrs in presence of colistin by broth dilution assay; assay type: functional; conditions: dose 64 µg/ml
Escherichia coli [3] = assay: Synergistic antibacterial activity against wild type Escherichia coli BW25113 assessed as levofloxacin MIC at 8 microg/ml incubated for 18 hrs in presence of colistin by broth dilution assay; assay type: functional; conditions: dose 8 µg/ml
Escherichia coli [4] = assay: Synergistic antibacterial activity against wild type Escherichia coli BW25113 assessed as fold decrease in erythromycin MIC at 128 microg/ml incubated for 18 hrs by checkboard based microplate reader analysis; assay type: functional; conditions: dose 128 µg/ml
Escherichia coli [5] = assay: Synergistic antibacterial activity against wild type Escherichia coli BW25113 assessed as levofloxacin MIC at 0.5 microg/ml incubated for 18 hrs in presence of colistin by broth dilution assay; assay type: functional; conditions: dose 0.5 µg/ml
Escherichia coli [6] = assay: Synergistic antibacterial activity against wild type Escherichia coli BW25113 assessed as levofloxacin MIC at 16 microg/ml incubated for 18 hrs by broth dilution assay; assay type: functional; conditions: dose 16 µg/ml
Escherichia coli [7] = assay: Synergistic antibacterial activity against wild type Escherichia coli BW25113 assessed as minocycline MIC at 1 microg/ml incubated for 18 hrs in presence of colistin by broth dilution assay; assay type: functional; conditions: dose 1 µg/ml
Escherichia coli [8] = assay: Synergistic antibacterial activity against wild type Escherichia coli BW25113 assessed as erythromycin MIC at 8 microg/ml incubated for 18 hrs in presence of colistin by broth dilution assay; assay type: functional; conditions: dose 8 µg/ml
Escherichia coli [9] = assay: Synergistic antibacterial activity against wild type Escherichia coli BW25113 assessed as erythromycin MIC at 0.5 microg/ml incubated for 18 hrs in presence of colistin by broth dilution assay; assay type: functional; conditions: dose 0.5 µg/ml
Escherichia coli [10] = assay: Synergistic antibacterial activity against wild type Escherichia coli BW25113 assessed as erythromycin MIC at 1 microg/ml incubated for 18 hrs in presence of colistin by broth dilution assay; assay type: functional; conditions: dose 1 µg/ml
Escherichia coli [11] = assay: Synergistic antibacterial activity against wild type Escherichia coli BW25113 assessed as minocycline MIC at 2 microg/ml incubated for 18 hrs in presence of colistin by broth dilution assay; assay type: functional; conditions: dose 2 µg/ml
Escherichia coli [12] = assay: Synergistic antibacterial activity against wild type Escherichia coli BW25113 assessed as minocycline MIC at 8 microg/ml incubated for 18 hrs by broth dilution assay; assay type: functional; conditions: dose 8 µg/ml
Escherichia coli [13] = assay: Synergistic antibacterial activity against wild type Escherichia coli BW25113 assessed as minocycline MIC at 128 microg/ml incubated for 18 hrs by broth dilution assay; assay type: functional; conditions: dose 128 µg/ml
Escherichia coli [14] = assay: Synergistic antibacterial activity against wild type Escherichia coli BW25113 assessed as levofloxacin MIC at 2 microg/ml incubated for 18 hrs in presence of colistin by broth dilution assay; assay type: functional; conditions: dose 2 µg/ml
Escherichia coli [15] = assay: Synergistic antibacterial activity against wild type Escherichia coli BW25113 assessed as fold decrease in erythromycin MIC at 8 microg/ml incubated for 18 hrs by checkboard based microplate reader analysis; assay type: functional; conditions: dose 8 µg/ml
Escherichia coli [16] = assay: Synergistic antibacterial activity against wild type Escherichia coli BW25113 assessed as minocycline MIC at 4 microg/ml incubated for 18 hrs in presence of colistin by broth dilution assay; assay type: functional; conditions: dose 4 µg/ml
Escherichia coli [17] = assay: Synergistic antibacterial activity against wild type Escherichia coli BW25113 assessed as levofloxacin MIC at 4 microg/ml incubated for 18 hrs in presence of colistin by broth dilution assay; assay type: functional; conditions: dose 4 µg/ml
[18] = target: T1, Multidrug efflux pump subunit AcrB (Escherichia coli (strain K12)) (UniProt P31224); assay: Inhibition of Escherichia coli BW25113 AcrB assessed as inhibition of nile red efflux at 100 uM incubated for 15 mins
T1 sequence (whole entry): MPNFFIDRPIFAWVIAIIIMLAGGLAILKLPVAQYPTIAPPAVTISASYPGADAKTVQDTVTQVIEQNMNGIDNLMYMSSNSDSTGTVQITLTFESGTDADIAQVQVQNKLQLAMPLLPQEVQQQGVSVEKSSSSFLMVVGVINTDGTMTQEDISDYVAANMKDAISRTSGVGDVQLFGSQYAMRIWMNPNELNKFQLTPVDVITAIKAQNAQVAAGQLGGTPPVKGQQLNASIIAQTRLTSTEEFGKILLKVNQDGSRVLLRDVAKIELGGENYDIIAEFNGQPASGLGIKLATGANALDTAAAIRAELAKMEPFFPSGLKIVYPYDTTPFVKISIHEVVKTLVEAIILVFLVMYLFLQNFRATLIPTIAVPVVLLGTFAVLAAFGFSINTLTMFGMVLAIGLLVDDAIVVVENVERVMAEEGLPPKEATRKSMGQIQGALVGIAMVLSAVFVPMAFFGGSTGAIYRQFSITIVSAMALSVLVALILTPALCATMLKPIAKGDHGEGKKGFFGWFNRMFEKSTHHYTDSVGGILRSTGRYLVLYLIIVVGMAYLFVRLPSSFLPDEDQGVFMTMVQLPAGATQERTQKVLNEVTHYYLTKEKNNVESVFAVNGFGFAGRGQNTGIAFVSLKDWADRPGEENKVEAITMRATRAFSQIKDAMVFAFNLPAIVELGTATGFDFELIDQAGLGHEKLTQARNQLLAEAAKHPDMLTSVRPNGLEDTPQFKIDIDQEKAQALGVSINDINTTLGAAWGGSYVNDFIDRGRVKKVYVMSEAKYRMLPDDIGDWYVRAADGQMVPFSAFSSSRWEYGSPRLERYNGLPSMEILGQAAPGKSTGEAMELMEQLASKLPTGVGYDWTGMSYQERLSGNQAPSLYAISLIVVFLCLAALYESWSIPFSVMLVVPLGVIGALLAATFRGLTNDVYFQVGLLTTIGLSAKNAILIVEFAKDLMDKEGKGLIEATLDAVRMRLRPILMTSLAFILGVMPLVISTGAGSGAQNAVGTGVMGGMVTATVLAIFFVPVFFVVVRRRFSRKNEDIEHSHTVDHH

[19] = target: T1, Multidrug efflux pump subunit AcrB (Escherichia coli (strain K12)); assay: Inhibition of Escherichia coli BW25113 AcrB assessed as inhibition of nile red efflux at 200 uM incubated for 15 mins
Escherichia coli [20] = assay: Synergistic antibacterial activity against wild type Escherichia coli BW25113 assessed as fold decrease in erythromycin MIC at 64 microg/ml incubated for 18 hrs by checkboard based microplate reader analysis; assay type: functional; conditions: dose 64 µg/ml
Escherichia coli [21] = assay: Synergistic antibacterial activity against wild type Escherichia coli BW25113 assessed as fold decrease in erythromycin MIC at 16 to 64 microg/ml incubated for 18 hrs by checkboard based microplate reader analysis; assay type: functional; conditions: dose 16-64 µg/ml
Escherichia coli [22] = assay: Synergistic antibacterial activity against wild type Escherichia coli BW25113 assessed as levofloxacin MIC at 128 microg/ml incubated for 18 hrs in presence of colistin by broth dilution assay; assay type: functional; conditions: dose 128 µg/ml
Escherichia coli [23] = assay: Synergistic antibacterial activity against wild type Escherichia coli BW25113 assessed as fold decrease in minocycline MIC at 64 microg/ml incubated for 18 hrs by checkboard based microplate reader analysis; assay type: functional; conditions: dose 64 µg/ml
Escherichia coli [24] = assay: Synergistic antibacterial activity against wild type Escherichia coli BW25113 assessed as erythromycin MIC at 128 microg/ml incubated for 18 hrs in presence of colistin by broth dilution assay; assay type: functional; conditions: dose 128 µg/ml

| SMILES | MIC (Escherichia coli [2]) [µg/mL] | MIC (Escherichia coli [3]) [µg/mL] | fold change (FC) (Escherichia coli [4]) | MIC (Escherichia coli [6]) [µg/mL] | MIC (Escherichia coli [8]) [µg/mL] | MIC (Escherichia coli [12]) [µg/mL] | MIC (Escherichia coli [13]) [µg/mL] | MIC (Escherichia coli [16]) [µg/mL] | MIC (Escherichia coli [17]) [µg/mL] | other results |
| --- | --- | --- | --- | --- | --- | --- | --- | --- | --- | --- |
| CC1(C)CCc2c(C(=O)N3CCOCC3)cc3c(OCCN4CCN(c5ccccc5)CC4)cccc3c2O1 | 0.032 | 0.032 | 4 | 0.016 | 4 | 2 | 1 |  |  | MIC (Escherichia coli [1]): 0.032 µg/mL; MIC (Escherichia coli [5]): 0.032 µg/mL; MIC (Escherichia coli [7]): 0.5 µg/mL; MIC (Escherichia coli [9]): 16 µg/mL; MIC (Escherichia coli [10]): 16 µg/mL; MIC (Escherichia coli [11]): 0.5 µg/mL; MIC (Escherichia coli [14]): 0.032 µg/mL |
| CC1(C)CCc2c(C(=O)N3CCOCC3)cc3c(OCCSc4ccc([N+](=O)[O-])cc4)cccc3c2O1 | 0.032 | 0.032 |  | 0.032 | 8 | 2 | 2 | 1 | 0.032 | fold change (FC) (Escherichia coli [15]): 4; inhibition [18]: 100%; inhibition [19]: 100% |
| CC1(C)CCc2c(C(=O)N3CCOCC3)cc3c(OCCCOc4cccc(C(=O)O)c4)cccc3c2O1 | 0.008 | 0.016 |  | 0.016 | 8 |  | 0.5 | 0.5 | 0.032 | fold change (FC) (Escherichia coli [20]): 4; fold change (FC) (Escherichia coli [21]): 4 |
| COc1ccc(OCCCOc2cccc3c4c(c(C(=O)N5CCOCC5)cc23)CCC(C)(C)O4)cc1 | 0.032 | 0.016 | 8 | 0.032 | 16 | 2 | 1 |  |  | MIC (Escherichia coli [22]): 0.032 µg/mL; fold change (FC) (Escherichia coli [23]): 4; MIC (Escherichia coli [24]): 8 µg/mL |
